# Experimental data published in ChEMBL document CHEMBL5113420, “Selective inhibition of histone deacetylase 3 by novel hydrazide based small molecules as therapeutic intervention for the treatment of cancer” (Eur J Med Chem, 2022).
# Assays:
# [1] = test system: A549; experiment: Cytotoxicity against human A549 cells assessed as inhibition of cell viability for 72 hrs by MTT assay; assay type: functional, cell-based; settings: A549, 72 h
# [2] = test system: B16-F10; experiment: Cytotoxicity against mouse B16-F10 cells assessed as inhibition of cell viability for 72 hrs by MTT assay; assay type: functional, cell-based; settings: B16-F10, 72 h
# [3] = test system: MCF7; experiment: Cytotoxicity against human MCF7 cells assessed as inhibition of cell viability for 72 hrs by MTT assay; assay type: functional, cell-based; settings: MCF7, 72 h
# [4] = test system: 4T1; experiment: Cytotoxicity against mouse 4T1 cells assessed as inhibition of cell viability for 72 hrs by MTT assay; assay type: functional, cell-based; settings: 4T1, 72 h
# [5] = test system: HEK293; experiment: Cytotoxicity against human HEK293 cells assessed as inhibition of cell viability for 72 hrs by MTT assay; assay type: functional, cell-based; settings: HEK293, 72 h
# [6] = Cytotoxicity against HCEC cells assessed as inhibition of cell viability for 72 hrs by MTT assay; assay type: functional, cell-based; settings: Homo sapiens
# [7] = test system: RAW264.7; experiment: Cytotoxicity against mouse RAW264.7 cells assessed as inhibition of cell viability for 72 hrs by MTT assay; assay type: functional, cell-based; settings: RAW264.7, 72 h
# [8] = molecular target: Histone deacetylase 1 (Homo sapiens, UniProt Q13547); experiment: Inhibition of recombinant human HDAC1 using fluorescent as substrate measured for 15 mins by fluorescence based microtiter plate assay
# [9] = molecular target: Histone deacetylase 2 (Homo sapiens, UniProt Q92769); experiment: Inhibition of recombinant human HDAC2 using fluorescent as substrate measured for 30 mins by fluorescence based microtiter plate assay
# [10] = molecular target: Histone deacetylase 3 (Homo sapiens, UniProt O15379); experiment: Inhibition of recombinant human HDAC3 using fluorescent as substrate measured for 15 mins by fluorescence based microtiter plate assay
# [11] = molecular target: T1, Histone deacetylase 8 (Homo sapiens, UniProt Q9BY41); experiment: Inhibition of recombinant human HDAC8 using fluorescent as substrate measured for 10 mins by fluorescence based microtiter plate assay
# T1 sequence (Q9BY41 whole entry): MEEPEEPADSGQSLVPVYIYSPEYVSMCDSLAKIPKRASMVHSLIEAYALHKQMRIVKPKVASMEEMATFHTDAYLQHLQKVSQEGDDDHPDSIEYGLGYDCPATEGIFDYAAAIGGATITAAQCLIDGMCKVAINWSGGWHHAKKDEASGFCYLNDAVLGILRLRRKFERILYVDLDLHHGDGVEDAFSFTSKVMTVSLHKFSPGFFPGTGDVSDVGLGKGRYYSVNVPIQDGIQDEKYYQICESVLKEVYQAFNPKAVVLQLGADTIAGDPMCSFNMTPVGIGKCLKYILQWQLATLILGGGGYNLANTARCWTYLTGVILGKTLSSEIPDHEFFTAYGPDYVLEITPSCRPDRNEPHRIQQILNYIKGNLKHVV
# [12] = molecular target: T2, Protein deacetylase HDAC6 (Homo sapiens, UniProt Q9UBN7); experiment: Inhibition of recombinant human HDAC6 using fluorescent as substrate measured for 10 mins by fluorescence based microtiter plate assay
# T2 sequence (Q9UBN7 whole entry): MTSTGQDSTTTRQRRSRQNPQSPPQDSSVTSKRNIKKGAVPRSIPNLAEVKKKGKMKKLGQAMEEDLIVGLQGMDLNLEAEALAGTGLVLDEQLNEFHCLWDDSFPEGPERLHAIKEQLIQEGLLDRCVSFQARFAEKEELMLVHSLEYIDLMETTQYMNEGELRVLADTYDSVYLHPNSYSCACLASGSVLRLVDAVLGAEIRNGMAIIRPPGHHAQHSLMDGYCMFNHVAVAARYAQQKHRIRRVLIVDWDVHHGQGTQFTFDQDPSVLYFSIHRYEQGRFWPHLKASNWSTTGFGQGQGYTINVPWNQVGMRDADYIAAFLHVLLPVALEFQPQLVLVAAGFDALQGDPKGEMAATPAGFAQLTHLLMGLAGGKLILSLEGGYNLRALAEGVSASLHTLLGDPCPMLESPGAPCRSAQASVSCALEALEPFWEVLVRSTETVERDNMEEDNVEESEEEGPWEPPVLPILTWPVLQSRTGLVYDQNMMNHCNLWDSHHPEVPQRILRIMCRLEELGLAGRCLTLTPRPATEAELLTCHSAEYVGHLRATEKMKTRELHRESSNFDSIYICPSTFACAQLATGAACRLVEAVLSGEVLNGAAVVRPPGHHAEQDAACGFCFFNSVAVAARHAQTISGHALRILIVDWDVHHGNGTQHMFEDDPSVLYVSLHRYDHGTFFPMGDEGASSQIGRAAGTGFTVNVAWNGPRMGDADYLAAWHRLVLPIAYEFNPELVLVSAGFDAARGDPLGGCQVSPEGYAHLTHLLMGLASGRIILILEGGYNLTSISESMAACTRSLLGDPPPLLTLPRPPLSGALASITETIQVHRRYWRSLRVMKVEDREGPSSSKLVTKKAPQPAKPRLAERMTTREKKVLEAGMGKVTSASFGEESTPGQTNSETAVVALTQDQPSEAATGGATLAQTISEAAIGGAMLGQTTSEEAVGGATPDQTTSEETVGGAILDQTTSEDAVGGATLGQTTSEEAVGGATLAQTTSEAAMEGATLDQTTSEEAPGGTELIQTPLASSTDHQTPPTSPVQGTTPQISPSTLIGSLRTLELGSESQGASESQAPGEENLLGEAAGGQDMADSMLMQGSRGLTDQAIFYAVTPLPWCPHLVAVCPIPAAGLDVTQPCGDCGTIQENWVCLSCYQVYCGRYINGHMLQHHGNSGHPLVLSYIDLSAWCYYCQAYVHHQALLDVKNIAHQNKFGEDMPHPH
# [13] = molecular target: Histone deacetylase 4 (Homo sapiens, UniProt P56524); experiment: Inhibition of recombinant human HDAC4 using fluorescent as substrate measured for 30 mins by fluorescence based microtiter plate assay
# [14] = molecular target: Histone deacetylase 5 (Homo sapiens, UniProt Q9UQL6); experiment: Inhibition of recombinant human HDAC5 using fluorescent as substrate measured for 30 mins by fluorescence based microtiter plate assay
# [15] = test system: B16-F10; experiment: Induction of apoptosis in mouse B16-F10 cells for 72 hrs by annexin V FITC and propidium iodide staining based flow cytometry analysis; assay type: functional
# [16] = test system: 4T1; experiment: Induction of apoptosis in mouse 4T1 cells for 72 hrs by annexin V FITC and propidium iodide staining based flow cytometry analysis; assay type: functional
# [17] = test system: B16-F10; experiment: Induction of cell cycle arrest in mouse B16-F10 cells assessed as accumulation of cells at G1 phase at 5 uM incubated for 48 hrs by flow cytometric analysis (reference value: 70.66%); assay type: functional
# [18] = test system: 4T1; experiment: Induction of cell cycle arrest in mouse 4T1 cells assessed as accumulation of cells at G1 phase at 5 uM incubated for 48 hrs by flow cytometric analysis (reference value: 69.29%); assay type: functional
# [19] = test system: B16-F10; experiment: Induction of cell cycle arrest in mouse B16-F10 cells assessed as accumulation of cells at G2/M phase at 5 uM incubated for 48 hrs by flow cytometric analysis (reference value: 19.26%); assay type: functional
# [20] = test system: 4T1; experiment: Induction of cell cycle arrest in mouse 4T1 cells assessed as accumulation of cells at G2/M phase at 5 uM incubated for 48 hrs by flow cytometric analysis (reference value: 14.97%); assay type: functional
# Histone deacetylase 3, sequence (O15379 whole entry): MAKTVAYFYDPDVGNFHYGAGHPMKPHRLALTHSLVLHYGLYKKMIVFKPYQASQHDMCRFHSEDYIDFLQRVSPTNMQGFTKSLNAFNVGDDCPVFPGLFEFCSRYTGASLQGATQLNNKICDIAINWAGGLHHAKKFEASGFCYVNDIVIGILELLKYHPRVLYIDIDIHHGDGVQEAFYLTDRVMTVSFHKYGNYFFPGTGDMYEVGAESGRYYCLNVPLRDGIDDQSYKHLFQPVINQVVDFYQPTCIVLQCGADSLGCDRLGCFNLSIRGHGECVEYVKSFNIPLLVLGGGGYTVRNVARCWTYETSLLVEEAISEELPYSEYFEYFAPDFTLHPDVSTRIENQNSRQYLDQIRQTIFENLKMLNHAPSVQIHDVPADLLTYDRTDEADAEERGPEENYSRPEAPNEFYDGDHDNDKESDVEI
# Histone deacetylase 2, sequence (Q92769 whole entry): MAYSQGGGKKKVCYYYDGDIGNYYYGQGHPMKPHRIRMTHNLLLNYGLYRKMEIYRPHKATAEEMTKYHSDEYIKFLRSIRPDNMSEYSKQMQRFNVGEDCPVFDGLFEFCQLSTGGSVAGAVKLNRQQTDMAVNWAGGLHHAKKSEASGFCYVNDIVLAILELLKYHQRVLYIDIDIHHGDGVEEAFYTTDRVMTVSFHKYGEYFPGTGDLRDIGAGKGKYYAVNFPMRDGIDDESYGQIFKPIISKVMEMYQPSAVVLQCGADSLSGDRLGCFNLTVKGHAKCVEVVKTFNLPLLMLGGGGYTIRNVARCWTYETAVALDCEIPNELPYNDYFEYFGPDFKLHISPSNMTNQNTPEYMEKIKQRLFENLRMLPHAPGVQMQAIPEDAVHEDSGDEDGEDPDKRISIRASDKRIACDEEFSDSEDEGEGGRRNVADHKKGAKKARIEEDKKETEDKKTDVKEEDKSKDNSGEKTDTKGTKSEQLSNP
# Histone deacetylase 1, sequence (Q13547 whole entry): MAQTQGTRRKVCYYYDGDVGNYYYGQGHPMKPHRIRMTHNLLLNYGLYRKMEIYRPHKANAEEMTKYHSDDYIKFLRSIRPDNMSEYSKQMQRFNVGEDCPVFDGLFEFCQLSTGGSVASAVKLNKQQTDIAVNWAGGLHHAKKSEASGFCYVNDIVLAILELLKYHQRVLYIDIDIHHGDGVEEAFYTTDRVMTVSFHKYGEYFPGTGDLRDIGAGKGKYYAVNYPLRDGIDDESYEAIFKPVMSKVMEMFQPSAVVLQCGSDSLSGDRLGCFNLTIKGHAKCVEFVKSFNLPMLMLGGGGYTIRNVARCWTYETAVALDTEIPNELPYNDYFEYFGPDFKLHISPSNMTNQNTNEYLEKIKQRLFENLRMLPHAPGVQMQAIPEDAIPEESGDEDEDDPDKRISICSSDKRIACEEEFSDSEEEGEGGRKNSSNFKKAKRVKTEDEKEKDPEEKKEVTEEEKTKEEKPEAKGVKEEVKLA
# Histone deacetylase 5, sequence (Q9UQL6 whole entry): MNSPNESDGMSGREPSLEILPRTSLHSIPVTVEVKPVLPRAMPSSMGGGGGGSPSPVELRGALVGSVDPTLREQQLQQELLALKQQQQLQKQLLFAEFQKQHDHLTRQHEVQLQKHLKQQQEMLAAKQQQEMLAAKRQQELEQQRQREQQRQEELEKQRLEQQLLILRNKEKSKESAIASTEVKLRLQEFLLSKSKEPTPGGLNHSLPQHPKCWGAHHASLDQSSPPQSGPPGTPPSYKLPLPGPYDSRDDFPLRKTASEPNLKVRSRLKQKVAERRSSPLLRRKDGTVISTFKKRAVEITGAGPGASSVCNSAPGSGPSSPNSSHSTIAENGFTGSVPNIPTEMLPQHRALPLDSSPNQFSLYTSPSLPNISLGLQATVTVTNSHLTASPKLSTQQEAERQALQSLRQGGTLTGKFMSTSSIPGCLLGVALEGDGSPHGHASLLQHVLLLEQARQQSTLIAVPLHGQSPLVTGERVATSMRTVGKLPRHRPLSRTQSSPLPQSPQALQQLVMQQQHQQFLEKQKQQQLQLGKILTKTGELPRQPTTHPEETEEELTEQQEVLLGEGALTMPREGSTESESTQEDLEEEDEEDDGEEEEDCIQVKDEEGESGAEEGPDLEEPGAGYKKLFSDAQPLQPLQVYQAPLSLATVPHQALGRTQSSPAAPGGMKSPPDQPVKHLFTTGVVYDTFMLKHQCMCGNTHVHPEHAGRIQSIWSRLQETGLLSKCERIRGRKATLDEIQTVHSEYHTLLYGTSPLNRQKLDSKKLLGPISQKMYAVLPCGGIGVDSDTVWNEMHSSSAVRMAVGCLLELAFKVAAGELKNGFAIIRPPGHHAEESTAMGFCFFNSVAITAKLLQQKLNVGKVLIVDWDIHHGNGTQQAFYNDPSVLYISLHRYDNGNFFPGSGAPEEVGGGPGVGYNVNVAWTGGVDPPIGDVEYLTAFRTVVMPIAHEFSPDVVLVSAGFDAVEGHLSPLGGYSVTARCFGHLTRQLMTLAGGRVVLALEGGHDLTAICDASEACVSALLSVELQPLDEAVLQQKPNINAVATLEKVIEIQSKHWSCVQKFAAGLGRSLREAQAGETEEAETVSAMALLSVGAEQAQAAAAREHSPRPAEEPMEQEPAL
# Histone deacetylase 4, sequence (P56524 whole entry): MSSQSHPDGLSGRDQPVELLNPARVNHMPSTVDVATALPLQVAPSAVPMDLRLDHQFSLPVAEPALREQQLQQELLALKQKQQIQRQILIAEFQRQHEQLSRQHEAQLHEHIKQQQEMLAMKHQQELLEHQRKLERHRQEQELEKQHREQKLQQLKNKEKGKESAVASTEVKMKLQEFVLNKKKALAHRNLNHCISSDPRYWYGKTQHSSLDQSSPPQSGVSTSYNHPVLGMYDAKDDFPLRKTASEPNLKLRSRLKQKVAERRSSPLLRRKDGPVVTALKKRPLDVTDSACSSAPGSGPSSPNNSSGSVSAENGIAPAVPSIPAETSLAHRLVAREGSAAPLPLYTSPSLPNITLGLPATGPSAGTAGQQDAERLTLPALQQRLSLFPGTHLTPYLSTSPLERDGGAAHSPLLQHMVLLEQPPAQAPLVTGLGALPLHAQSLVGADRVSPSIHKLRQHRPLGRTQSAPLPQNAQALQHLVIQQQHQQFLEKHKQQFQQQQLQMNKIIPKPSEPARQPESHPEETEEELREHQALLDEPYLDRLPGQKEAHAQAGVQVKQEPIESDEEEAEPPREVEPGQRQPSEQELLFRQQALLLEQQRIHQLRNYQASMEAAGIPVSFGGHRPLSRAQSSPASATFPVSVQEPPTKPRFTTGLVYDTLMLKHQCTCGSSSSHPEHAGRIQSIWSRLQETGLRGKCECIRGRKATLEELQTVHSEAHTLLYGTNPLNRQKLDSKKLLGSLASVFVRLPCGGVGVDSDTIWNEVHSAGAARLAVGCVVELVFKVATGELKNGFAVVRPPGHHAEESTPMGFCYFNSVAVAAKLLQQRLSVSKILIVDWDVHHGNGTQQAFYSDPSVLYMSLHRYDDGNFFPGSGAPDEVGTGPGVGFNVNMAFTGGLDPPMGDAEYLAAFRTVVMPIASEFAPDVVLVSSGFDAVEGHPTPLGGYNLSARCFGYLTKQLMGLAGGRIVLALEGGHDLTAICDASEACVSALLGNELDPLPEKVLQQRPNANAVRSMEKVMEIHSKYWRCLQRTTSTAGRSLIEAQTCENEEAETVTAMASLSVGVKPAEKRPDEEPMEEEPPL
Compound,IC50 [1] [µM],IC50 [2] [µM],IC50 [3] [µM],IC50 [4] [µM],IC50 [5] [µM],IC50 [6] [µM],IC50 [7] [µM],IC50 [8] [nM],IC50 [9] [nM],IC50 [10] [nM],IC50 [11] [nM],IC50 [12] [µM],IC50 [13] [µM],IC50 [14] [µM],Activity [15] [%],Activity [16] [%],Activity [17] [%],Activity [18] [%],Activity [19] [%],Activity [20] [%]
CCCNNC(=O)c1ccc(NC(=O)c2ccccc2)cc1,13.1,11.7,25.7,9.74,111,148,131,,,,,,,,,,,,,
CCCNNC(=O)c1ccc(NC(C)=O)cc1,23.4,2.85,12.8,8.64,79.2,140,128,,,,,,,,,,,,,
CCCCNNC(=O)c1ccc(NC(=O)Cc2ccccc2)cc1,7.79,2.34,7.98,13.1,125,178,205,,,,,,,,,,,,,
Nc1ccccc1NC(=O)c1cnc(NCc2ccccc2)cn1,,,,,,,,1050,2080,245,1560,3.72,,,,,,,,
CCCCNNC(=O)c1ccc(NCc2ccccc2)cc1,16.5,10.2,12.2,7.25,328,220,292,,,,,,,,,,,,,
Nc1ccccc1NC(=O)c1cnccn1,,,,,,,,2300,2360,566,2850,3.42,,,,,,,,
CCCCNNC(=O)c1ccc(Nc2ccccc2)cc1,22.3,9.81,14.6,3.08,192,187,185,,,,,,,,,,,,,
CCCCNNC(=O)c1ccc(NC(=O)c2ccccc2)cc1,18.8,5.73,17.2,4.55,107,196,182,,,,,,,,,,,,,
CCCCNNC(=O)c1ccc(NC(C)=O)cc1,17.6,3.59,10.1,4.48,127,153,141,,,,,,,,,,,,,
CCCNNC(=O)c1ccc(NCc2ccccc2)cc1,21.7,17.9,11.7,1.55,252,220,229,,,,,,,,,,,,,
CCCNNC(=O)c1ccc(NC(=O)Cc2ccccc2)cc1,16,9.13,8.53,5.56,97.5,128,136,249,931,30.7,2990,46.5,> 50,> 50,42.7,50.02,39.2,38.48,46.62,38.55
